Data reported in US20250154169A1, “COMPOUNDS AND METHODS FOR MODULATING SPLICING” (REMIX THERAPEUTICS INC., priority 2021, published 2025).
Where a name gives a salt, the structure may show the parent alone. Read-outs that look alike come from different tables or passages of the source.

Columns and labels:
Format in all cases: cell-based, human
SMN2 mRNA = assay: Splicing RT-qPCR gene panel, SMN2 canonical junction (CJ) mRNA; conditions: Homo sapiens, Tables 4A/4B, read-out: SMN2 (IC50, decrease in CJ mRNA, gene panel)
Method in brief: (§1)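 Cells (A673 in DMEM/10% FBS, K562 in IMDM/10% FBS) got compound for 24 h, top dose 10 uM, 11 points, 3-fold steps, DMSO ≤0.25%. Lysates went to RT-qPCR for the canonical exon-exon junction; ΔΔCt against housekeeper and DMSO gave RQ, then percentage response.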

HTT mRNA [1] = assay: Splicing RT-qPCR assay, HTT canonical (CJ) and alternative (AJ) junction mRNA; conditions: Homo sapiens, A673 or K562 cells, 24 hours compound treatment; for IC50: 24 h, read-out: HTT CJ (IC50, decrease in canonical junction mRNA); for AC50: read-out: HTT AJ (AC50, increase in alternative junction mRNA)
Method in brief: (§2)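 A673 or K562 cells were treated 24 h at 37 °C with an 11-point 3-fold compound dilution series (top 10 uM, DMSO ≤0.25%). Lysates went to one-step RT-qPCR measuring canonical (CJ) and alternative-exon (AJ) junction transcripts, normalized to GAPDH, GUSB or PPIA.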

MYB mRNA = assay: Splicing RT-qPCR assay, MYB canonical (CJ) and alternative (AJ) junction mRNA; conditions: Homo sapiens; for AC50: read-out: MYB AJ (AC50, increase in alternative junction mRNA)
Method in brief: as §2

HTT mRNA [2] = assay: Splicing RT-qPCR gene panel, HTT canonical junction (CJ) mRNA; conditions: Homo sapiens, Tables 4A/4B, read-out: HTT (IC50, decrease in CJ mRNA, gene panel)
Method in brief: as §1

Target C mRNA = assay: Splicing RT-qPCR gene panel, Target C canonical junction (CJ) mRNA; conditions: Homo sapiens, Tables 4A/4B, read-out: Target C (IC50, decrease in CJ mRNA, gene panel)
Method in brief: as §1

[3] = 24 h, A673 or K562 cells, 24 hours compound treatment, RT-qPCR
[4] = 24 h, A673 or K562 cells, 24 hours compound treatment, RT-qPCR, read-out: MYB CJ (IC50, decrease in canonical junction mRNA)
[5] = Tables 4A/4B, canonical junction qPCR panel, read-out: MYB (IC50, decrease in CJ mRNA, gene panel)

| SMILES | IC50 (SMN2 mRNA) [nM] | IC50 (HTT mRNA [1]) [nM] | IC50 (MYB mRNA; [4]) [nM] | IC50 (MYB mRNA; [5]) [nM] | IC50 (HTT mRNA [2]) [nM] | IC50 (Target C mRNA) [nM] | AC50 (HTT mRNA [1]) [nM] | AC50 (MYB mRNA; [3]) [nM] |
| --- | --- | --- | --- | --- | --- | --- | --- | --- |
| Cc1cn2cc(NC(=O)c3ccc(N4CCNCC4)c4c(C)n(C)nc34)cc(F)c2n1 [Compound 297] | 100 to 1000 | 1000 to 10000 | 1000 to 10000 | 1000 to 10000 | 1000 to 10000 | 1000 to 10000 | 1000 to 10000 | 1000 to 10000 |
| Cc1cn2cc(NC(=O)c3cc(C)c(N4CCNCC4)c4cn(C)nc34)cc(F)c2n1 [Compound 300] | 100 to 1000 | > 10000 | 1000 to 10000 | 1000 to 10000 | > 10000 | > 10000 | > 10000 | 100 to 1000 |
| Cc1cn2cc(NC(=O)c3cc(F)c(N4CCNCC4)c4cn(C)nc34)cc(F)c2n1 [Compound 303, 5-fluoro-N-{8-fluoro-2-methylimidazo[1,2-a]pyridin-6-yl}-2-methyl-4-(piperazin-1-yl)indazole-7-carboxamide] | < 100 | 1000 to 10000 | 100 to 1000 | 100 to 1000 | 1000 to 10000 | > 10000 | 1000 to 10000 | 100 to 1000 |
| Cc1cn2cc(NC(=O)c3ccc(N4CCNCC4)c4cn(C5CCOCC5)nc34)cc(F)c2n1 [Compound 304, N-{8-fluoro-2-methylimidazo[1,2-a]pyridin-6-yl}-2-(oxan-4-yl)-4-(piperazin-1-yl) indazole-7-carboxamide trifluoroacetic acid salt] | < 100 | 1000 to 10000 | 100 to 1000 | 100 to 1000 | 1000 to 10000 | > 10000 | > 10000 | 100 to 1000 |
| Cc1cn2cc(NC(=O)c3ccc(N4CCNCC4)c4cn(CCF)nc34)cc(F)c2n1 [Compound 305, N-{8-fluoro-2-methylimidazo[1,2-a]pyridin-6-yl}-2-(2-fluoroethyl)-4-(piperazin-1-yl)indazole-7-carboxamide] | < 100 | 1000 to 10000 | 100 to 1000 | 100 to 1000 | 1000 to 10000 | > 10000 | 1000 to 10000 | 100 to 1000 |
| COCCn1cc2c(N3C[C@@H](C)N[C@@H](C)C3)ccc(C(=O)Nc3cc(F)c4nc(C)cn4c3)c2n1 [Compound 306, 4-[(3R,5S)-3,5-dimethylpiperazin-1-yl]-N-{8-fluoro-2-methylimidazo[1,2-a]pyridin-6-yl}-2-(2-methoxyethyl) indazole-7-carboxamide] | < 100 | 1000 to 10000 | 100 to 1000 | 100 to 1000 | 1000 to 10000 | > 10000 | 1000 to 10000 | < 100 |
| CCNC1CCN(c2ccc(C(=O)Nc3cc(F)c4nc(C)cn4c3)c3nn(CCOC)cc23)CC1 [Compound 307, 4-[4-(ethylamino)piperidin-1-yl]-N-{8-fluoro-2-methylimidazo[1,2-a]pyridin-6-yl}-2-(2-methoxyethyl) indazole-7-carboxamide] | < 100 | 1000 to 10000 | 100 to 1000 | 100 to 1000 | 1000 to 10000 | > 10000 | 1000 to 10000 | 100 to 1000 |
| Cc1cn2cc(NC(=O)c3ccc(N4CCNCC4)c4cn(CC5(C)COC5)nc34)cc(F)c2n1 [Compound 308, N-{8-fluoro-2-methylimidazo[1,2-a]pyridin-6-yl}-2-[(3-methyloxetan-3-yl)methyl]-4-(piperazin-1-yl)indazole-7-carboxamide] | > 10000 | > 10000 | > 10000 | > 10000 | > 10000 | > 10000 | > 10000 | > 10000 |
| Cc1cn2cc(NC(=O)c3ccc(N4CCNCC4)c4cn(CC(=O)N(C)C)nc34)cc(F)c2n1 [Compound 309, 2-[(dimethylcarbamoyl)methyl]-N-{8-fluoro-2-methylimidazo[1,2-a]pyridin-6-yl}-4-(piperazin-1-yl)indazole-7-carboxamide] | 1000 to 10000 | > 10000 | 1000 to 10000 | 1000 to 10000 | > 10000 | > 10000 | > 10000 | > 10000 |
| CCNC1CCN(c2ccc(C(=O)Nc3cc(F)c4nc(C)cn4c3)c3nn(CCOC)cc23)C1 (stereo not drawn) [Compound 310, 4-(3-(ethylamino)pyrrolidin-1-yl)-N-(8-fluoro-2-methylimidazo[1,2-a]pyridin-6-yl)-2-(2-methoxyethyl)-2H-indazole-7-carboxamide] | < 100 | 1000 to 10000 | < 100 | < 100 | 1000 to 10000 | > 10000 | 1000 to 10000 | < 100 |

The next lines start with results.

| IC50 (SMN2 mRNA) [nM] | IC50 (HTT mRNA [1]) [nM] | IC50 (MYB mRNA; [4]) [nM] | IC50 (MYB mRNA; [5]) [nM] | IC50 (HTT mRNA [2]) [nM] | IC50 (Target C mRNA) [nM] | SMILES | AC50 (HTT mRNA [1]) [nM] | AC50 (MYB mRNA; [3]) [nM] |
| --- | --- | --- | --- | --- | --- | --- | --- | --- |
| < 100 | 1000 to 10000 | < 100 | < 100 | 1000 to 10000 | > 10000 | Cc1cn2cc(NC(=O)c3ccc(N4CCNCC4)c4cn(C)nc34)nc(C)c2n1 [Compound 293, N-{2,8-dimethylimidazo[1,2-a]pyrazin-6-yl}-2-methyl-4-(piperazin-1-yl)indazole-7-carboxamide] | 100 to 1000 | < 100 |
| < 100 | 100 to 1000 | < 100 | < 100 | 100 to 1000 | > 10000 | Cc1cn2cc(NC(=O)c3ccc(N4CCNCC4)c4cn(C5CC5)nc34)cc(F)c2n1 [Compound 294, 2-cyclopropyl-N-{8-fluoro-2-methylimidazo[1,2-a]pyridin-6-yl}-4-(piperazin-1-yl) indazole-7-carboxamide] | 1000 to 10000 | < 100 |
| < 100 | > 10000 | 100 to 1000 | 100 to 1000 | > 10000 | > 10000 | Cc1cn2cc(NC(=O)c3ccc(N4CCNCC4)c4cn(C5COC5)nc34)cc(F)c2n1 [Compound 295, N-{8-fluoro-2-methylimidazo[1,2-a]pyridin-6-yl}-2-(oxetan-3-yl)-4-(piperazin-1-yl)indazole-7-carboxamide] | 1000 to 10000 | 100 to 1000 |
| < 100 | > 10000 | < 100 | < 100 | > 10000 | > 10000 | Cc1cn2cc(NC(=O)c3ccc(N4CCC(NC5CC5)C4)c4cn(C)nc34)cc(F)c2n1 (stereo not drawn) [Compound 296, 4-[3-(cyclopropylamino)pyrrolidin-1-yl]-N-{8-fluoro-2-methylimidazo[1,2-a]pyridin-6-yl}-2-methylindazole-7-carboxamide] | > 10000 | < 100 |
| < 100 | 1000 to 10000 | < 100 | < 100 | 1000 to 10000 | 1000 to 10000 | CNC1CCN(c2ccc(C(=O)Nc3cc(F)c4nc(C)cn4c3)c3nn(C)cc23)C1 (stereo not drawn) [Compound 298, N-{8-fluoro-2-methylimidazo[1,2-a]pyridin-6-yl}-2-methyl-4-[3-(methylamino)pyrrolidin-1-yl]indazole-7-carboxamide trifluoroacetic acid salt] | 1000 to 10000 | 100 to 1000 |
| < 100 | > 10000 | 100 to 1000 | 100 to 1000 | > 10000 | > 10000 | Cc1cn2cc(NC(=O)c3ccc(N4CCC5(CCN5)C4)c4cn(C)nc34)cc(F)c2n1 (stereo not drawn) [Compound 299, 4-{1,6-diazaspiro[3.4]octan-6-yl}-N-{8-fluoro-2-methylimidazo[1,2-a]pyridin-6-yl}-2-methylindazole-7-carboxamide] | > 10000 | 100 to 1000 |
| < 100 | 100 to 1000 | < 100 | < 100 | 100 to 1000 | 1000 to 10000 | Cc1cn2cc(NC(=O)c3ccc(N4CCC5(CCN5)CC4)c4cn(C)nc34)cc(F)c2n1 [Compound 301, 4-{1,7-diazaspiro[3.5]nonan-7-yl}-N-{8-fluoro-2-methylimidazo[1,2-a]pyridin-6-yl}-2-methylindazole-7-carboxamide trifluoroacetic acid salt] | 100 to 1000 | < 100 |
| < 100 | 1000 to 10000 | < 100 | < 100 | 1000 to 10000 | > 10000 | COCCCn1cc2c(N3CCNCC3)ccc(C(=O)Nc3cc(F)c4nc(C)cn4c3)c2n1 [Compound 302, N-{8-fluoro-2-methylimidazo[1,2-a]pyridin-6-yl}-2-(3-methoxypropyl)-4-(piperazin-1-yl)indazole-7-carboxamide] | 1000 to 10000 | < 100 |
